In patent publication EP0393640B1, “A monoclonal antibody recognizing C-terminus of ANP” (SHIONOGI SEIYAKU KABUSHIKI KAISHA trading under the name of …, priority 1989, dated 1990):
Ends that are not written are not given here.

Assays:
Format in all cases: binding, mouse
AN111 = experiment: Cross-reactivity of ANP-related polypeptides in the α-hANP radioimmunoassay with AN111; conditions: ascitic fluid AN111A
Description: (§1) Using peptide and peptide fragment relating to α-hANP as a sample in α-hANP radioimmunoassay to be described in Example 5, cross reactivity was measured. It was confirmed that both of AN111 and AN117 recognize the C-terminus of α-hANP. Table 1 Assay buffer solution : 0.1 M phosphate buffer solution (pH 7.0) containing 0.372 g of disodium ethylenediamine tetraacetate, 0.063 g of cystine dihydrochloride, 0.262 g of ε-aminocaproic acid, 0.1g of sodium azide and 1 g of bovine serum albumin per liter. Dilute ascitic fluid : A[…] 110,000-fold diluted with Assay buffer solution or A[…] 62,000-fold diluted with Assay buffer solution. α-hANP standard : α-hANP serially two-fold diluted at a range of concentrations from 3.13 ng/ml to 100 ng/ml. 125 I -labelled α-hANP : 125I-labelled α-hANP (Amersham) diluted with Assay buffer solution up to approximately 3.7 KBq/ml. 1 % Bovine gamma globulin : dissolved in Assay buffer solution 37.5 % Polyethylene glycol : polyethylene glycol 6000 dissolved in Assay buffer solution without bovine serum albumin To a tube charged with 100 »l of α-hANP standard or a sample, 100 »l of 125I-labelled α-hANP, 100 »l of dilute ascitic fluid and 200 »l of 1 % bovine gamma globulin were added and the mixture was incubated overnight at 4 °C. […] After removing the supernatant, the radioactivity of the precipitate is measured by a gamma counter (Aloka, ARC-600 type)

AN117 = experiment: Cross-reactivity of ANP-related polypeptides in the α-hANP radioimmunoassay with AN117; conditions: ascitic fluid AN117A
Description: as §1

[1] = tested on: AN111 as an immobilized antibody, ¹²⁵I-labelled KY-ANP-I; experiment: Cross-reactivity of ANP-related peptides in the sandwich radioimmunoassay (one-step); conditions: one-step assay, AN111 immobilized on beads
Description: Anti-α-ANP [17-28] monoclonal antibody produced by the above hybridoma clone AN111 or AN117 (the antibody is hereinafter referred to as AN111 or AN117) which was immobilized on beads was used as an immobilized antibody. As a labelled antibody, anti-α-hANP [1 -28] monoclonal antibody produced by hybridoma clone KY-ANP-I (ECACC 87082001, EP-A-0 306 309) (the antibody is hereinafter referred to as KY-ANP-I) which was labelled with 125I was used. By the above antibodies, a sandwich radioimmunoassay of α-hANP was established. In 0.05 M phosphate buffer (pH 7.4) containing the IgG fraction (100 »g/ml) of A[…] or A[…] prepared in Item 1 above are immersed polystyrene beads (Ichico, 3.2 mm diameter) and allowed to stand at 4 °C for 20 hr. […] Radioactivity of 125 I -labelled antibody bound to the solid phase was measured by a gamma counter. A standard curve was prepared by plotting a concentration of α-hANP standard at abscissa and the measured radioactivity at ordinate. An ANP concentration in plasma was calculated by applying the radioactivity from the plasma sample to the standard curve. […]

## β-hANP: antiparallel dimer of α-hANP (SLRRSSCFGGRMDRIGAQSGLGCNSFRY; ends and bridges not checked; also: antiparallel dimer of α-hANP; UniProt P01160 124-151, looked up)
AN111
  Cross-reactivity (%) AN111: 142%
AN117
  Cross-reactivity (%) AN117: 136%
[1]
  Cross-Reactivity (Molar %): 100 Molar %
